Structures are written as SMILES.

In one experiment the target is T1, soybean lipoxygenase (LOX) (Glycine max, UniProt P08170).
T1 construct: gene LOX1.1; commercial native soybean enzyme (Sigma), catalogue number or type not given; 13-hydroperoxylinoleate product points to LOX-1
T1 sequence (P08170 1-839): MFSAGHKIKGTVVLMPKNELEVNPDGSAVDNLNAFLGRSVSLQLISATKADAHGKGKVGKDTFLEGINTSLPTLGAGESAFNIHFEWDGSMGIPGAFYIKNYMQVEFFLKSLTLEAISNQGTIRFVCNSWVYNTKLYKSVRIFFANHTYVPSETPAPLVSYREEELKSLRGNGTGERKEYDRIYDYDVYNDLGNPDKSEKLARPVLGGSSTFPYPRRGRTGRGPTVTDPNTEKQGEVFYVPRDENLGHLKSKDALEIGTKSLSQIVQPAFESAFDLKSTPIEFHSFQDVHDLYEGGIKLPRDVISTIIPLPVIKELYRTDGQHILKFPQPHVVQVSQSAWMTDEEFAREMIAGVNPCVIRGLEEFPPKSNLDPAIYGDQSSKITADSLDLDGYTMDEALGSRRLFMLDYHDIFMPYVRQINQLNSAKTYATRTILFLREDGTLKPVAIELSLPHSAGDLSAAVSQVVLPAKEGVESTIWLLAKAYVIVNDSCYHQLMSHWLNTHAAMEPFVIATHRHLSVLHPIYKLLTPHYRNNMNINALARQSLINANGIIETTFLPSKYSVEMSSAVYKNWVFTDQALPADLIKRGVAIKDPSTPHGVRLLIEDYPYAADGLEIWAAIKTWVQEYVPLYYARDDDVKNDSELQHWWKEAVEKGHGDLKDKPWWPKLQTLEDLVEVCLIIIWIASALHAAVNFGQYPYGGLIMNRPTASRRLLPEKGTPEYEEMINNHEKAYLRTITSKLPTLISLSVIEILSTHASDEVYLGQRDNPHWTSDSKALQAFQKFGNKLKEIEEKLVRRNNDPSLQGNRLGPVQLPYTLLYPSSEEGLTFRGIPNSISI
The experiment in a line: UV absorbance at […] nm. It counts as biochemical. The note with it: 0.1 mM compound; sodium linoleate; room temperature.
Regarding `O=C(O[C@@H]1O[C@H](CO)[C@@H](O)[C@H](O)[C@H]1O)c1ccccc1` [compound 5, benzoate glucoside], the “% LOX ± SD Inhbt @ (0.1 mM)” value is recorded as 29 ± 1.1%.
As to `O=C(O)/C=C/c1ccc(O[C@@H]2O[C@H](CO)[C@@H](O)[C@H](O)[C@H]2O)cc1` [compound 14, 4-O-β-D-glucopyranyl trans-p-coumaric acid], the “% LOX ± SD Inhbt @ (0.1 mM)” value amounted to 100 ± 2.5%.
Still for that read-out and setting: as for `C[C@@H]1O[C@@H](OC[C@H]2O[C@@H](Oc3c(-c4ccc(O)cc4)oc4cc(O)cc(O)c4c3=O)[C@H](O)[C@@H](O)[C@@H]2O)[C@H](O)[C@H](O)[C@H]1O` [compound 17, kaempferol-3-O-β-rutinoside], the figure is 46 ± 1.0%; as for `CC1=CC(=O)CC(C)(C)[C@@]1(O)/C=C/C(C)=C\CO[C@@H]1O[C@H](CO)[C@@H](O)[C@H](O)[C@H]1O` [compound 16, abscisic alcohol glucoside], 25±1.2%.
The same measure, in the same setting: as for `O=C(O)/C=C/c1ccc(O)cc1` [compound 13, p-coumaric acid], the figure is 18 ± 0.6%.
As for `O=C(/C=C/c1ccc(O)cc1)OC[C@H]1O[C@@H](Oc2c(-c3ccc(O)cc3)oc3cc(O)cc(O)c3c2=O)[C@H](O)[C@@H](O)[C@@H]1O` [compound 19, tiliroside], the “% LOX ± SD Inhbt @ (0.1 mM)” value amounted to 8 ± 0.3%.

For the next experiment, the target named is T1, soybean lipoxygenase (LOX). As to the kind of experiment: UV absorbance at […] nm. The experiment is classed as biochemical. The note with it: room temperature; product 13-hydroperoxylinoleate.
Take `CCCCC/C=C\C/C=C\CCCCCCCC(=O)O` [sodium linoleate]: the “UV absorbance at 234 nm” value is “The transformation of sodium linoleate to 13-hydroperoxylinoleate sodium was measured spectrophotometrically”.

Source of the values: publication PMC5874590, “The Occurrence of Flavonoids and Related Compounds in Cedrus brevifolia A. Henry ex Elwes & A. Henry Needles. Inhibitory Potencies on Lipoxygenase, Linoleic Acid Lipid Peroxidation and Antioxidant Activity” (Plants, 2017).
